{
  "source": "patent US7939623B2",
  "about": "“Composition containing flavan compound” (Toyo Shinyaku Co., Ltd., priority 2004, dated 2011)",
  "test": "Evaluation for coagulation-precipitation of flavan compounds and proteins (peptides), Reference Example",
  "assay_type": "physicochemical",
  "set-up": "key: +: The precipitation was remarkably observed; ±: The precipitation was slightly observed; −: Not observed",
  "conditions": "room temperature, one week",
  "protocol": "Then, an aqueous solution of each of the pine bark extract, the proanthocyanidin dry powder, and epigallocatechin (produced by Roche Vitamins Japan K.K.) was prepared such that a final concentration was 0.2 wt %, as a first liquid. Separately, collagen (having an average molecular weight of 300 thousands: produced by KOKEN CO., LTD), Nippi Peptide PA-100 (having an average molecular weight of 10,000: produced by Nippi, incorporated), Collagen peptide DS (having an average molecular weight of 7,000: produced by Kyowa. […] At room temperature, 1 mL of first liquid and 1 mL of second liquid were mixed. The resultant liquid mixture was allowed to stand at room temperature for one week, and it was visually observed whether or not precipitation or suspension was caused in the liquid mixture.",
  "key": {"[1]": {"conditions": "second liquid: collagen average MW 300,000"}, "[2]": {"conditions": "second liquid: collagen peptide average MW 1,000"}, "[3]": {"conditions": "second liquid: collagen peptide average MW 3,000"}, "[4]": {"conditions": "second liquid: collagen peptide average MW 5,000"}, "[5]": {"conditions": "second liquid: collagen peptide average MW 7,000"}, "[6]": {"conditions": "second liquid: collagen peptide average MW 10,000"}},
  "data": [
    {"substance": "Epigallocatechin gallate", "values": [
      {"measurement": "Precipitation", "setting": "0.2 wt % first liquid 1 mL + 1 mL 10.0 wt % second liquid: glycine (MW 75), visual", "value": "−"},
      {"measurement": "Precipitation", "setting": "[1]", "value": "+"},
      {"measurement": "Suspension", "setting": "[1]", "value": "+"},
      {"measurement": "Precipitation", "setting": "[2]", "value": "−"},
      {"measurement": "Suspension", "setting": "[2]", "value": "−"},
      {"measurement": "Precipitation", "setting": "[3]", "value": "−"},
      {"measurement": "Suspension", "setting": "[3]", "value": "−"},
      {"measurement": "Precipitation", "setting": "[4]", "value": "−"},
      {"measurement": "Suspension", "setting": "[4]", "value": "−"},
      {"measurement": "Precipitation", "setting": "[5]", "value": "−"},
      {"measurement": "Suspension", "setting": "[5]", "value": "−"},
      {"measurement": "Precipitation", "setting": "[6]", "value": "±"},
      {"measurement": "Suspension", "setting": "[6]", "value": "+"},
      {"measurement": "Suspension", "setting": "second liquid: glycine (MW 75)", "value": "−"}
    ]}
  ]
}
